# Key:
# Format in all cases: in vivo
# [1] = system: ragweed (common ragweed, Ambrosia elation); test: Test C pre-/postemergence: ragweed
# Source text: (§1) Seeds of plant species selected from blackgrass (Alopecurus myosuroides), bromegrass, downy (downy bromegrass, Bromus tectorum), foxtail, green (green foxtail, Setaria viridis), ryegrass, Italian (Italian ryegrass, Lolium multiflorum), winter wheat (Triticum aestivum), wild oat (Avena fatua), galium (catchweed bedstraw, Galium aparine), bermudagrass (Cynodon dactylon), surinam grass (Brachiaria decumbens), cocklebur (common cocklebur, Xanthium strumarium), corn (Zea mays), large crabgrass (Digitaria sanguinalis), woolly cupgrass (Eriochloa villosa), foxtail, giant (giant foxtail, Setaria faberii), goosegrass (Eleusine indica), johnsongrass (Sorghum halepense), kochia (Kochia scoparia), lambsquarters (Chenopodium album), morningglory (Ipomoea coccinea), nightshade (eastern black nightshade, Solanum ptycanthum), nutsedge, yellow (yellow nutsedge, Cyperus esculentus), pigweed (Amaranthus retroflexus), ragweed (common ragweed, Ambrosia elation), soybean (Glycine max), common (oilseed) sunflower (Helianthus annuus), Russian thistle (Salsola kali) and velvetleaf (Abutilon theophrasti) were planted into a blend of loam soil and sand and treated preemergence with test chemicals formulated in a non-phytotoxic solvent mixture which included a surfactant.
# (§2) At the same time, plants selected from these crop and weed species and also barley (winter barley, Hordeum vulgare), canarygrass (Phalaris minor), chickweed (common chickweed, Stellaria media) windgrass (Apera spica-venti) and deadnettle (henbit deadnettle, Lamium amplexicaule) were planted in pots containing Redi-Earth® planting medium (Scotts Company, 14111 Scottslawn Road, Marysville, Ohio 43041) comprising spaghnum peat moss, vermiculite, wetting agent and starter nutrients and treated with postemergence applications of test chemicals formulated in the same manner. Plants ranged in height from 2 to 18 cm (1- to 4-leaf stage) for postemergence treatments.
# (§3) Treated plants and controls were maintained in a greenhouse for 13 to 15 days, after which time all species were compared to controls and visually evaluated. Plant response ratings, summarized in Table C, are based on a scale of 0 to 100 where 0 is no effect and 100 is complete control. A dash (-) response means no test result.
# [2] = system: johnsongrass (Sorghum halepense); test: Test C pre-/postemergence: johnsongrass
# Source text: as §1, §2, §3
# [3] = system: ryegrass, Italian (Italian ryegrass, Lolium multiflorum); test: Test C pre-/postemergence: ryegrass, Italian
# Source text: as §1, §2, §3
# [4] = system: corn (Zea mays); test: Test A pre-/postemergence: corn
# Outline: (§4)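 Visual 0–100 injury ratings (0 no effect, 100 complete control) taken about ten days after treatment, relative to untreated controls. Preemergence treatment was a directed soil spray; postemergence plants were 2–10 cm tall at one- to two-leaf stage. Soil: loam/sand blend.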
# [5] = system: kochia (Kochia scoparia); test: Test C pre-/postemergence: kochia
# Source text: as §1, §2, §3
# [6] = system: chickweed (common chickweed, Stellaria media); test: Test C postemergence: chickweed
# Source text: as §2, §3
# [7] = system: morningglory (Ipomoea spp.); test: Test A pre-/postemergence: morningglory
# Outline: as §4
# [8] = system: soybean (Glycine max); test: Test C pre-/postemergence: soybean
# Source text: as §1, §2, §3
# [9] = system: foxtail, giant (giant foxtail, Setaria faberii); test: Test A pre-/postemergence: foxtail, giant; conditions: for Foxtail, Giant plant response rating: Postemergence; for Plant response rating, Foxtail, Giant: Preemergence
# Outline: as §4
# [10] = Postemergence, 31 g ai/ha, scale 0 to 100 (0 no effect, 100 complete control)
# [11] = Postemergence, 62 g ai/ha, scale 0 to 100 (0 no effect, 100 complete control)
# [12] = Postemergence, 125 g ai/ha, scale 0 to 100, 0 no effect, 100 complete control
# [13] = Postemergence, 250 g ai/ha, scale 0 to 100
# [14] = Preemergence, 31 g ai/ha, scale of 0 to 100, 0 is no effect, 100 is complete control
# [15] = Preemergence, 62 g ai/ha, scale of 0 to 100, 0 is no effect, 100 is complete control
# [16] = Preemergence, 125 g ai/ha, scale 0 to 100, 0 no effect, 100 complete control
# [17] = Preemergence, 250 g ai/ha, scale 0 to 100, 0 no effect, 100 complete control
# [18] = Postemergence, 1000 g ai/ha, visual rating on 0 to 100 scale (0 no effect, 100 complete control), approximately ten days
# [19] = Preemergence, 1000 g ai/ha, 0 to 100 scale, 0 is no effect, 100 is complete control
# [20] = 31 g ai/ha, scale 0 to 100 (0 no effect, 100 complete control)
# [21] = 62 g ai/ha, scale 0 to 100 (0 no effect, 100 complete control)
# [22] = 125 g ai/ha, scale 0 to 100, 0 no effect, 100 complete control
# [23] = Postemergence, 125 g ai/ha, 0 to 100 scale, 0 is no effect, 100 is complete control
# [24] = Postemergence, 500 g ai/ha, visual rating on 0 to 100 scale (0 no effect, 100 complete control), approximately ten days
# [25] = Preemergence, 125 g ai/ha, 0 to 100 scale (0 no effect, 100 complete control)
# [26] = Preemergence, 500 g ai/ha, 0 to 100 scale, 0 is no effect, 100 is complete control
structure (smiles),measurement,setting,value
Cc1nn(-c2ccc(C(F)(F)F)cn2)nc1Cc1cccc(C(F)(F)F)c1 [Compound 106],"Plant response rating, Ragweed",[1]; [10],10
same,"Plant response rating, Ragweed",[1]; [11],55
same,"Plant response rating, Ragweed",[1]; [12],60
same,"Plant response rating, Ragweed",[1]; [13],60
same,"Plant response rating, Ragweed",[1]; [14],0
same,"Plant response rating, Ragweed",[1]; [15],0
same,"Plant response rating, Ragweed",[1]; [16],0
same,"Plant response rating, Ragweed",[1]; [17],55
same,"Plant response rating, Johnsongrass",[2]; [10],0
same,"Plant response rating, Johnsongrass",[2]; [11],15
same,"Plant response rating, Johnsongrass",[2]; [12],40
same,"Plant response rating, Johnsongrass",[2]; [13],55
same,"Plant response rating, Johnsongrass",[2]; [14],0
same,"Plant response rating, Johnsongrass",[2]; [15],20
same,"Plant response rating, Johnsongrass",[2]; [16],75
same,"Plant response rating, Johnsongrass",[2]; [17],85
same,"Plant response rating, Ryegrass, Italian",[3]; [10],5
same,"Plant response rating, Ryegrass, Italian",[3]; [11],5
same,"Plant response rating, Ryegrass, Italian",[3]; [12],20
same,"Plant response rating, Ryegrass, Italian",[3]; [13],30
same,"Plant response rating, Ryegrass, Italian",[3]; [14],5
same,"Plant response rating, Ryegrass, Italian",[3]; [15],20
same,"Plant response rating, Ryegrass, Italian",[3]; [16],45
same,"Plant response rating, Ryegrass, Italian",[3]; [17],50
same,Corn plant response rating,[4]; [18],10
same,Corn plant response rating,[4]; [19],10
same,"Plant response rating, Kochia",[5]; [10],85
same,"Plant response rating, Kochia",[5]; [11],85
same,"Plant response rating, Kochia",[5]; [12],85
same,"Plant response rating, Kochia",[5]; [13],90
same,"Plant response rating, Kochia",[5]; [14],0
same,"Plant response rating, Kochia",[5]; [15],0
same,"Plant response rating, Kochia",[5]; [16],45
same,"Plant response rating, Kochia",[5]; [17],65
same,"Plant response rating, Chickweed",[6]; [20],60
same,"Plant response rating, Chickweed",[6]; [21],70
same,"Plant response rating, Chickweed",[6]; [22],95
same,"Plant response rating, Chickweed","[6]; 250 g ai/ha, scale 0 to 100",98
same,Morningglory plant response rating,[7]; [18],100
same,Morningglory plant response rating,[7]; [19],20
same,"Plant response rating, Soybean",[8]; [10],10
same,"Plant response rating, Soybean",[8]; [11],15
same,"Plant response rating, Soybean",[8]; [12],60
same,"Plant response rating, Soybean",[8]; [13],65
same,"Plant response rating, Soybean",[8]; [14],0
same,"Plant response rating, Soybean",[8]; [15],0
same,"Plant response rating, Soybean",[8]; [16],5
same,"Plant response rating, Soybean",[8]; [17],5
Cc1nn(-c2ccc(C(F)(F)F)cn2)nc1Oc1ccnc(C(F)(F)F)c1 [Compound 23],"Plant response rating, Ragweed",[1]; [10],10
same,"Plant response rating, Ragweed",[1]; [11],10
same,"Plant response rating, Ragweed",[1]; [12],20
same,"Plant response rating, Ragweed",[1]; [13],20
same,"Plant response rating, Ragweed",[1]; [14],5
same,"Plant response rating, Ragweed",[1]; [15],20
same,"Plant response rating, Ragweed",[1]; [16],20
same,"Plant response rating, Ragweed",[1]; [17],60
same,"Plant response rating, Johnsongrass",[2]; [10],5
same,"Plant response rating, Johnsongrass",[2]; [11],10
same,"Plant response rating, Johnsongrass",[2]; [12],10
same,"Plant response rating, Johnsongrass",[2]; [13],20
same,"Plant response rating, Johnsongrass",[2]; [14],55
same,"Plant response rating, Johnsongrass",[2]; [15],75
same,"Plant response rating, Johnsongrass",[2]; [16],95
same,"Plant response rating, Johnsongrass",[2]; [17],98
same,"Plant response rating, Ryegrass, Italian",[3]; [10],5
same,"Plant response rating, Ryegrass, Italian",[3]; [11],10
same,"Plant response rating, Ryegrass, Italian",[3]; [12],10
same,"Plant response rating, Ryegrass, Italian",[3]; [13],15
same,"Plant response rating, Ryegrass, Italian",[3]; [14],0
same,"Plant response rating, Ryegrass, Italian",[3]; [15],5
same,"Plant response rating, Ryegrass, Italian",[3]; [16],25
same,"Plant response rating, Ryegrass, Italian",[3]; [17],70
same,Corn plant response rating,[4]; [23],30
same,Corn plant response rating,[4]; [24],50
same,"Plant response rating, Corn",[4]; [25],10
same,"Plant response rating, Corn",[4]; [26],40
same,"Plant response rating, Kochia",[5]; [10],65
same,"Plant response rating, Kochia",[5]; [11],75
same,"Plant response rating, Kochia",[5]; [12],80
same,"Plant response rating, Kochia",[5]; [13],85
same,"Plant response rating, Kochia",[5]; [14],95
same,"Plant response rating, Kochia",[5]; [15],95
same,"Plant response rating, Kochia",[5]; [16],95
same,"Plant response rating, Kochia",[5]; [17],100
same,"Plant response rating, Chickweed",[6]; [20],30
same,"Plant response rating, Chickweed",[6]; [21],55
same,"Plant response rating, Chickweed",[6]; [22],60
same,"Plant response rating, Chickweed","[6]; 250 g ai/ha, scale 0 to 100",70
same,Morningglory plant response rating,[7]; [23],90
same,Morningglory plant response rating,[7]; [24],100
same,"Plant response rating, Morningglory",[7]; [25],80
same,"Plant response rating, Morningglory",[7]; [26],80
same,"Plant response rating, Soybean",[8]; [10],30
same,"Plant response rating, Soybean",[8]; [11],55
same,"Plant response rating, Soybean",[8]; [12],55
same,"Plant response rating, Soybean",[8]; [13],65
same,"Plant response rating, Soybean",[8]; [14],0
same,"Plant response rating, Soybean",[8]; [15],5
same,"Plant response rating, Soybean",[8]; [16],10
same,"Plant response rating, Soybean",[8]; [17],50
same,"Foxtail, Giant plant response rating","[9]; 125 g ai/ha, 0 to 100 scale, 0 is no effect, 100 is complete control",90
same,"Foxtail, Giant plant response rating","[9]; 500 g ai/ha, visual rating on 0 to 100 scale (0 no effect, 100 complete control), approximately ten days",90
same,"Plant response rating, Foxtail, Giant","[9]; 125 g ai/ha, 0 to 100 scale (0 no effect, 100 complete control)",100
same,"Plant response rating, Foxtail, Giant","[9]; 500 g ai/ha, 0 to 100 scale, 0 is no effect, 100 is complete control",100

# Source: patent publication US9302999B2, “Substituted triazoles as herbicides” (E. I. DU PONT DE NEMOURS AND COMPANY, priority 2012, dated 2016)
